The source of these data is PubChem BioAssay (NCI).

Several values for one entry are separate records, joined by “and”; a condition that tells them apart may be missing. Equal values may be shown once.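 A five-concentration, 48-hour dose response in 96-well plates underlies each endpoint, interpolated linearly between surrounding concentrations. GI50 marks 50% less growth. TGI marks complete inhibition of growth.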 Where only a bound is given, the exact number is not on record here.

Among the test systems are 786-0 renal; CAKI-1 renal; LOX IMVI melanoma; M14 melanoma; NCI-H522 lung; NCI/ADR-RES ovarian; PC-3 prostate; SF-268 CNS; SK-MEL-28 melanoma; UACC-257 melanoma.
Holding throughout (experiment): NCI-60 cell line screen, 48 h

As to `NC(=S)N/N=C/c1ccc(OC(=O)COc2ccc(Cl)cc2)cn1`, the GI50 was 3.64 µM with 786-0 renal; 4.3 µM with CAKI-1 renal; 3.18 µM with LOX IMVI melanoma; 3.51 µM in the assay with M14 melanoma; 0.718 µM in the assay on NCI-H522 lung; 3.17 µM in the assay on NCI/ADR-RES ovarian. Moreover, the GI50 was 4.67 µM with PC-3 prostate, 2.28 µM in the assay with SF-268 CNS, 36.4 µM with SK-MEL-28 melanoma and 17.9 µM with UACC-257 melanoma. The TGI with 786-0 renal is 9.98 µM; in the assay with CAKI-1 renal, 97.4 µM; in the assay with LOX IMVI melanoma, over 100 µM; with M14 melanoma, 15.6 µM; with NCI-H522 lung, 40 µM; in the assay with NCI/ADR-RES ovarian, over 100 µM. Moreover, the TGI with PC-3 prostate is over 100 µM; with SF-268 CNS, 21.8 µM; with SK-MEL-28 melanoma it was over 100 µM; with UACC-257 melanoma, 72.1 µM.
For the compound `CCS(=O)(=O)c1ccc(OC)c(Nc2ncc(-c3cccc(OC)c3)o2)c1`, the GI50 with 786-0 renal is 9.57 µM; in the assay with CAKI-1 renal it was 8.58 µM; in the assay with LOX IMVI melanoma, 6.12 µM; with M14 melanoma it was 14.6 µM; in the assay on NCI-H522 lung, 8.58 µM; in the assay with NCI/ADR-RES ovarian, 9.38 µM. The GI50 was 8.61 µM in the assay with PC-3 prostate, 8.84 µM with SF-268 CNS, over 20.6 µM with SK-MEL-28 melanoma and over 22.2 µM in the assay with UACC-257 melanoma. For the same compound, the TGI with 786-0 renal is over 25 µM; with CAKI-1 renal, over 25 µM; in the assay on LOX IMVI melanoma it was 24.8 µM; with M14 melanoma, over 25 µM; in the assay on NCI-H522 lung, 22.5 µM; in the assay on NCI/ADR-RES ovarian, over 25 µM. Besides, the TGI in the assay on PC-3 prostate, in the assay on SF-268 CNS, in the assay on SK-MEL-28 melanoma and in the assay on UACC-257 melanoma was over 25 µM each time.
As for `Fc1cc(F)c(COc2cc(Cn3cnc4c(Cl)nc(Cl)nc43)ccc2C23CC4CC(CC(C4)C2)C3)cc1F`, the GI50 in the assay on 786-0 renal is 19.4 µM; in the assay on CAKI-1 renal, 10.4 µM; in the assay on LOX IMVI melanoma, 1.76 µM; in the assay on NCI-H522 lung, 2.29 µM; with NCI/ADR-RES ovarian, 18.3 µM; with PC-3 prostate, 19.3 µM. The GI50 with SF-268 CNS is 16.4 µM; with SK-MEL-28 melanoma, 18.2 µM; in the assay with UACC-257 melanoma it was 21 µM. In addition, the TGI amounted to 34.9 µM in the assay on 786-0 renal; 22.8 µM in the assay with CAKI-1 renal; 3.91 µM in the assay with LOX IMVI melanoma; 5.56 µM with NCI-H522 lung; 37.1 µM with NCI/ADR-RES ovarian; 33.8 µM in the assay with PC-3 prostate. In addition, the TGI in the assay on SF-268 CNS stood at 33.1 µM; in the assay on SK-MEL-28 melanoma it was 37.4 µM; in the assay on UACC-257 melanoma it was 39.3 µM.
For the compound `CCC#CC[C@H]1C/C=C2/C(=O)C=C[C@@H]2C/C=C\CCCC(=O)O1`, the GI50 was 1.06 µM in the assay with 786-0 renal; 0.935 µM in the assay with CAKI-1 renal; 0.698 µM in the assay with LOX IMVI melanoma; 1.48 µM in the assay on M14 melanoma; 0.663 µM in the assay with NCI-H522 lung; 1.01 µM in the assay on NCI/ADR-RES ovarian. The results for the GI50 with PC-3 prostate, with SF-268 CNS and in the assay on SK-MEL-28 melanoma were 1.35 µM, 1.23 µM and 1.17 µM, respectively. Further, the TGI came to 2.4 µM in the assay with 786-0 renal; 2.1 µM with CAKI-1 renal; 1.5 µM with LOX IMVI melanoma; 8.61 µM with M14 melanoma; 1.83 µM with NCI-H522 lung; 17.2 µM in the assay with NCI/ADR-RES ovarian. Also, the TGI in the assay with PC-3 prostate worked out at 6.05 µM; with SF-268 CNS, 4.55 µM; in the assay with SK-MEL-28 melanoma, 3.83 µM.
On to `Nc1ncc(-c2cnn(CCO)c2)c2scc(-c3ccc(NC(=O)Nc4cccc(F)c4)cc3)c12`, for which the GI50 is 0.45 µM with 786-0 renal; 0.32 µM in the assay with CAKI-1 renal; 0.193 µM with M14 melanoma; 0.449 µM with NCI-H522 lung; 2.5 µM in the assay with NCI/ADR-RES ovarian; 0.288 µM in the assay on PC-3 prostate. In addition, the results for the GI50 in the assay on SF-268 CNS, in the assay on SK-MEL-28 melanoma and in the assay with UACC-257 melanoma were 0.435 µM, 0.465 µM and 0.287 µM, respectively. Besides, the TGI in the assay with 786-0 renal turned out to be 6.69 µM; with CAKI-1 renal it was 2.2 µM; with M14 melanoma, 3.31 µM; in the assay on NCI-H522 lung, 2.29 µM; in the assay on NCI/ADR-RES ovarian, 20.1 µM; in the assay on PC-3 prostate it was 3.28 µM. In addition, the TGI in the assay on SF-268 CNS amounted to 9.73 µM; in the assay with SK-MEL-28 melanoma, 3.56 µM; in the assay with UACC-257 melanoma, 1.89 µM.
In the case of `COc1cc(OC)c(/C=C/C(=O)c2c(OC)cccc2OC)c(OC)c1`, the GI50 was 0.536 µM in the assay with 786-0 renal; 0.463 µM in the assay with CAKI-1 renal; 0.566 µM with LOX IMVI melanoma; 0.441 µM with M14 melanoma; 0.387 µM with NCI/ADR-RES ovarian; 1.17 µM in the assay on PC-3 prostate. Further, the GI50 was 1.14 µM in the assay with SF-268 CNS and 1.01 µM with SK-MEL-28 melanoma. Also, the TGI was 3.89 µM in the assay on 786-0 renal; 97 µM in the assay on CAKI-1 renal; over 100 µM in the assay with LOX IMVI melanoma; 2.63 µM in the assay on M14 melanoma; over 25.8 µM with NCI/ADR-RES ovarian; over 100 µM in the assay with PC-3 prostate. Besides, the values for the TGI with SF-268 CNS, in the assay on SK-MEL-28 melanoma and in the assay on UACC-257 melanoma were over 42.1 µM, over 21.3 µM and over 100 µM, respectively.
With `CCOC(=O)c1cc(/C(=N\O)c2cc(OC)c(OC)c(OC)c2)n2cc(C)cc(C)c12`, the GI50 in the assay on 786-0 renal was 3.01 µM; in the assay on CAKI-1 renal, 2.36 µM; in the assay on LOX IMVI melanoma, 2.4 µM; in the assay on M14 melanoma, 2.08 µM; in the assay with NCI/ADR-RES ovarian, 2.19 µM; in the assay with PC-3 prostate it was 3.33 µM. Further, the GI50 with SF-268 CNS was 3.9 µM. The TGI was 10 µM in the assay with 786-0 renal; over 100 µM in the assay with CAKI-1 renal; 7.68 µM in the assay on LOX IMVI melanoma; 6.45 µM in the assay on M14 melanoma; 7.92 µM with NCI/ADR-RES ovarian; over 100 µM in the assay on PC-3 prostate. Further, in the assay with SF-268 CNS, the TGI was over 100 µM.
Consider `COc1ccc2c(c1)C(=O)c1c-2n(CCCn2ccnc2)c(=O)c2ccccc12`, for which the GI50 in the assay on 786-0 renal is 0.239 µM; in the assay with CAKI-1 renal, 0.211 µM; in the assay on LOX IMVI melanoma it was 0.179 µM; in the assay with NCI-H522 lung, 0.174 µM; in the assay on NCI/ADR-RES ovarian, 0.634 µM; in the assay with PC-3 prostate, 0.765 µM. Moreover, the values for the GI50 in the assay with SF-268 CNS, in the assay with SK-MEL-28 melanoma and in the assay on UACC-257 melanoma were 0.214 µM, 2.08 µM and 1.14 µM, respectively. In addition, the TGI in the assay with 786-0 renal was 1.66 µM; in the assay with CAKI-1 renal, 1.34 µM; in the assay on LOX IMVI melanoma, 0.835 µM; in the assay on NCI-H522 lung it was 5.5 µM; with NCI/ADR-RES ovarian it was 5.92 µM; with PC-3 prostate, over 100 µM. Besides, the TGI in the assay with SF-268 CNS is over 25.3 µM; in the assay on SK-MEL-28 melanoma, over 57.4 µM; in the assay with UACC-257 melanoma, 10.9 µM.
With `O=C1NC(=O)c2ccc([N+](=O)[O-])c3cccc1c23`, the TGI was 27 µM in the assay on 786-0 renal; 39 µM in the assay with CAKI-1 renal; 28.4 µM in the assay with M14 melanoma; 6.11 µM with NCI-H522 lung; 32 µM with PC-3 prostate; 62 µM in the assay on SF-268 CNS. Also, the TGI in the assay with SK-MEL-28 melanoma was found to be 37.8 µM; in the assay on UACC-257 melanoma it was 33.1 µM.
Consider `CN(C)CCNC(=O)c1cccc(C(=O)Nc2ccccc2)c1[N+](=O)[O-]`, for which the TGI in the assay with 786-0 renal, in the assay with CAKI-1 renal, in the assay with M14 melanoma, in the assay with NCI-H522 lung, in the assay with NCI/ADR-RES ovarian and in the assay with PC-3 prostate was over 100 µM each time. In addition, the TGI with SF-268 CNS, in the assay with SK-MEL-28 melanoma and with UACC-257 melanoma was over 100 µM in each case.
For `CN(C)CCCn1c2c(c3ccccc3c1=O)C(=O)c1ccccc1-2`, the GI50 in the assay on 786-0 renal was 2.47 µM; with CAKI-1 renal, 0.583 µM; in the assay on LOX IMVI melanoma, 0.937 µM; in the assay with M14 melanoma, 3.66 µM; in the assay on NCI-H522 lung, 3.62 µM; in the assay with NCI/ADR-RES ovarian, 1.85 µM. Besides, the GI50 was 2.27 µM with PC-3 prostate, 2.71 µM with SF-268 CNS and 3.97 µM in the assay on SK-MEL-28 melanoma. Also, the TGI with 786-0 renal was 14.2 µM; with CAKI-1 renal, 2.44 µM; in the assay on LOX IMVI melanoma, 3.19 µM; in the assay on M14 melanoma, 17.1 µM; in the assay with NCI-H522 lung, over 100 µM; in the assay with NCI/ADR-RES ovarian, 7.13 µM. The TGI in the assay on PC-3 prostate worked out at 13.7 µM; with SF-268 CNS, 15.2 µM; in the assay with SK-MEL-28 melanoma it was 18.3 µM.
In the case of `NC(N)=NCCCn1c2c(c3ccccc3c1=O)C(=O)c1ccccc1-2`, the GI50 with 786-0 renal was 0.681 µM; with CAKI-1 renal, 20.3 µM; in the assay with LOX IMVI melanoma it was 14.4 µM; in the assay on M14 melanoma it was 18.7 µM; in the assay with NCI-H522 lung, 2.45 µM; in the assay with NCI/ADR-RES ovarian, 38.6 µM. Besides, the GI50 with PC-3 prostate was 52.1 µM; in the assay with SF-268 CNS, 1.53 µM; in the assay on SK-MEL-28 melanoma it was 28.6 µM. Further, the TGI was 3.29 µM in the assay with 786-0 renal; 49 µM with CAKI-1 renal; 28.8 µM in the assay with LOX IMVI melanoma; 34.5 µM in the assay on M14 melanoma; 11.1 µM in the assay with NCI-H522 lung; over 100 µM with NCI/ADR-RES ovarian. In addition, the TGI in the assay on PC-3 prostate is over 100 µM; in the assay on SF-268 CNS, 9.45 µM; in the assay with SK-MEL-28 melanoma, over 100 µM.
With `CC(=O)OC[C@]12CC[C@H]3[C@@H](C[C@H]4O[C@]45[C@@H](O)C=CC(=O)[C@]35C)[C@@H]1CC[C@@H]2[C@H](C)[C@H]1CC(C)=C(C)C(=O)O1`, the GI50 was 0.241 µM and 0.232 µM in the assay on 786-0 renal; 0.385 µM and 0.266 µM in the assay with CAKI-1 renal; 0.303 µM and 0.374 µM in the assay on LOX IMVI melanoma; 0.442 µM and 0.32 µM in the assay on M14 melanoma; 0.259 µM and 0.166 µM with NCI-H522 lung; 0.397 µM and 0.376 µM in the assay with SF-268 CNS. In addition, the GI50 in the assay with SK-MEL-28 melanoma is 0.526 µM and 0.381 µM; in the assay with UACC-257 melanoma it was 0.638 µM and 0.801 µM. In addition, the TGI is 0.597 µM and 0.595 µM in the assay with 786-0 renal; 0.831 µM and 1.08 µM with CAKI-1 renal; 0.692 µM and 1.19 µM in the assay on LOX IMVI melanoma; 1.11 µM in the assay with M14 melanoma; 0.561 µM and 0.406 µM with NCI-H522 lung; 1.28 µM in the assay on SF-268 CNS. Further, the results for the TGI in the assay on SK-MEL-28 melanoma and in the assay with UACC-257 melanoma were 1.09 µM and 2.69 µM, respectively.
